Activity calls are given as the source filed them.
How the values were obtained:
[1] = tested on: Malme-3M; test: Growth inhibition of human MALME-3M cells at 10 uM after 48 hrs by sulforhodamine B assay; assay type: functional; conditions: read-out: GI
[2] = tested on: LOX IMVI; test: Growth inhibition of human LOXIMVI cells at 10 uM after 48 hrs by sulforhodamine B assay; assay type: functional
[3] = tested on: U-251; test: Growth inhibition of human U251 cells at 10 uM after 48 hrs by sulforhodamine B assay; assay type: functional
[4] = tested on: SNB-75; test: Growth inhibition of human SNB75 cells at 10 uM after 48 hrs by sulforhodamine B assay; assay type: functional
[5] = tested on: SNB-19; test: Growth inhibition of human SNB19 cells at 10 uM after 48 hrs by sulforhodamine B assay; assay type: functional
[6] = tested on: SF-539; test: Growth inhibition of human SF539 cells at 10 uM after 48 hrs by sulforhodamine B assay; assay type: functional; conditions: SF-539, 48 h, read-out: GI
[7] = tested on: SF-295; test: Growth inhibition of human SF295 cells at 10 uM after 48 hrs by sulforhodamine B assay; assay type: functional
[8] = tested on: KM12; test: Growth inhibition of human KM12 cells at 10 uM after 48 hrs by sulforhodamine B assay; assay type: functional
[9] = tested on: SW-620; test: Growth inhibition of human SW620 cells at 10 uM after 48 hrs by sulforhodamine B assay; assay type: functional
[10] = tested on: HCT-15; test: Growth inhibition of human HCT15 cells at 10 uM after 48 hrs by sulforhodamine B assay; assay type: functional; conditions: HCT-15, 48 h, read-out: GI
[11] = tested on: HCT-116; test: Growth inhibition of human HCT116 cells at 10 uM after 48 hrs by sulforhodamine B assay; assay type: functional; conditions: HCT-116, 48 h, read-out: GI
[12] = tested on: HCC 2998; test: Growth inhibition of human HCC2998 cells at 10 uM after 48 hrs by sulforhodamine B assay; assay type: functional
[13] = tested on: COLO 205; test: Growth inhibition of human COLO205 cells at 10 uM after 48 hrs by sulforhodamine B assay; assay type: functional
[14] = tested on: NCI-H522; test: Growth inhibition of human NCI-H522 cells at 10 uM after 48 hrs by sulforhodamine B assay; assay type: functional; conditions: NCI-H522, 48 h, read-out: GI
[15] = tested on: NCI-H460; test: Growth inhibition of human NCI-H460 cells at 10 uM after 48 hrs by sulforhodamine B assay; assay type: functional
[16] = tested on: NCI-H322M; test: Growth inhibition of human NCI-H322M cells at 10 uM after 48 hrs by sulforhodamine B assay; assay type: functional
[17] = tested on: NCI-H23; test: Growth inhibition of human NCI-H23 cells at 10 uM after 48 hrs by sulforhodamine B assay; assay type: functional
[18] = tested on: NCI-H226; test: Growth inhibition of human NCI-H226 cells at 10 uM after 48 hrs by sulforhodamine B assay; assay type: functional; conditions: NCI-H226, 48 h, read-out: GI
[19] = tested on: HOP-62; test: Growth inhibition of human HOP62 cells at 10 uM after 48 hrs by sulforhodamine B assay; assay type: functional
[20] = tested on: A549; test: Growth inhibition of human A549/ATCC cells at 10 uM after 48 hrs by sulforhodamine B assay; assay type: functional; conditions: A549, 48 h, read-out: GI
[21] = tested on: SR; test: Growth inhibition of human SR cells at 10 uM after 48 hrs by sulforhodamine B assay; assay type: functional; conditions: read-out: GI
[22] = tested on: RPMI-8226; test: Growth inhibition of human RPMI8226 cells at 10 uM after 48 hrs by sulforhodamine B assay; assay type: functional; conditions: RPMI-8226, 48 h, read-out: GI
[23] = tested on: MOLT-4; test: Growth inhibition of human MOLT4 cells at 10 uM after 48 hrs by sulforhodamine B assay; assay type: functional; conditions: MOLT-4, 48 h, read-out: GI
[24] = tested on: HL-60(TB); test: Growth inhibition of human HL-60(TB) cells at 10 uM after 48 hrs by sulforhodamine B assay; assay type: functional; conditions: HL-60, 48 h, read-out: GI
[25] = tested on: T47D; test: Growth inhibition of human T47D cells at 10 uM after 48 hrs by sulforhodamine B assay; assay type: functional; conditions: read-out: GI
[26] = tested on: BT-549; test: Growth inhibition of human BT549 cells at 10 uM after 48 hrs by sulforhodamine B assay; assay type: functional; conditions: BT-549, 48 h, read-out: GI
[27] = tested on: MDA-MB-231; test: Growth inhibition of human MDA-MB-231 cells at 10 uM after 48 hrs by sulforhodamine B assay; assay type: functional
[28] = tested on: MCF7; test: Growth inhibition of human MCF7 cells at 10 uM after 48 hrs by sulforhodamine B assay; assay type: functional
[29] = tested on: DU-145; test: Growth inhibition of human DU145 cells at 10 uM after 48 hrs by sulforhodamine B assay; assay type: functional
[30] = tested on: PC-3; test: Growth inhibition of human PC3 cells at 10 uM after 48 hrs by sulforhodamine B assay; assay type: functional; conditions: PC-3, 48 h, read-out: GI
[31] = tested on: TK-10; test: Growth inhibition of human TK10 cells at 10 uM after 48 hrs by sulforhodamine B assay; assay type: functional
[32] = tested on: SN12C; test: Growth inhibition of human SN12C cells at 10 uM after 48 hrs by sulforhodamine B assay; assay type: functional
[33] = tested on: CAKI-1; test: Growth inhibition of human CAKI-1 cells at 10 uM after 48 hrs by sulforhodamine B assay; assay type: functional; conditions: CAKI-1, 48 h, read-out: GI
[34] = tested on: A498; test: Growth inhibition of human A498 cells at 10 uM after 48 hrs by sulforhodamine B assay; assay type: functional; conditions: A498, 48 h, read-out: GI
[35] = tested on: 786-0; test: Growth inhibition of human 786-0 cells at 10 uM after 48 hrs by sulforhodamine B assay; assay type: functional
[36] = tested on: SK-OV-3; test: Growth inhibition of human SKOV3 cells at 10 uM after 48 hrs by sulforhodamine B assay; assay type: functional
[37] = tested on: NCI/ADR-RES; test: Growth inhibition of human NCI-ADR-RES cells at 10 uM after 48 hrs by sulforhodamine B assay; assay type: functional
[38] = tested on: OVCAR-5; test: Growth inhibition of human OVCAR5 cells at 10 uM after 48 hrs by sulforhodamine B assay; assay type: functional; conditions: OVCAR-5, 48 h, read-out: GI
[39] = tested on: IGROV-1; test: Growth inhibition of human IGROV1 cells at 10 uM after 48 hrs by sulforhodamine B assay; assay type: functional; conditions: IGROV-1, 48 h, read-out: GI
[40] = tested on: UACC-62; test: Growth inhibition of human UACC62 cells at 10 uM after 48 hrs by sulforhodamine B assay; assay type: functional; conditions: UACC-62, 48 h, read-out: GI
[41] = tested on: UACC-257; test: Growth inhibition of human UACC257 cells at 10 uM after 48 hrs by sulforhodamine B assay; assay type: functional
[42] = tested on: SK-MEL-5; test: Growth inhibition of human SK-MEL-5 cells at 10 uM after 48 hrs by sulforhodamine B assay; assay type: functional; conditions: SK-MEL-5, 48 h, read-out: GI
[43] = tested on: SK-MEL-28; test: Growth inhibition of human SK-MEL-28 cells at 10 uM after 48 hrs by sulforhodamine B assay; assay type: functional, cell-based
[44] = tested on: SK-MEL-2; test: Growth inhibition of human SK-MEL-2 cells at 10 uM after 48 hrs by sulforhodamine B assay; assay type: functional
[45] = tested on: MDA-MB-435; test: Growth inhibition of human MDA-MB-435 cells at 10 uM after 48 hrs by sulforhodamine B assay; assay type: functional
[46] = tested on: MDA-MB-468; test: Growth inhibition of human MDA-MB-468 cells at 10 uM after 48 hrs by sulforhodamine B assay; assay type: functional; conditions: MDA-MB-468, 48 h, read-out: GI

Cc1ccc(C)c(N2CCN(c3ccncc3S(N)(=O)=O)CC2)c1
1%: inhibition of growth at 10 µM [6] | inhibition of growth at 10 µM ([7]; SF-295, 48 h, read-out: GI)
20%: inhibition of growth at 10 µM ([3]; U-251, 48 h, read-out: GI)
2%: inhibition of growth at 10 µM [20]
12%: inhibition of growth at 10 µM [10]
8%: inhibition of growth at 10 µM [22] | inhibition of growth at 10 µM [26]
6%: inhibition of growth at 10 µM [24] | inhibition of growth at 10 µM [39]
7%: inhibition of growth at 10 µM ([16]; read-out: GI) | inhibition of growth at 10 µM ([31]; TK-10, 48 h, read-out: GI) | inhibition of growth at 10 µM [40]
15%: inhibition of growth at 10 µM [1] | inhibition of growth at 10 µM [14] | inhibition of growth at 10 µM [25]
4%: inhibition of growth at 10 µM [30]
11%: inhibition of growth at 10 µM [23]
3%: inhibition of growth at 10 µM ([9]; SW-620, 48 h, read-out: GI) | inhibition of growth at 10 µM [18] | inhibition of growth at 10 µM [38] | inhibition of growth at 10 µM [42]
inactive: growth inhibition (GI) [2] | growth inhibition (GI) [5] | growth inhibition (GI) [8] | growth inhibition (GI) [12] | growth inhibition (GI) [13] | growth inhibition (GI) [15] | growth inhibition (GI) [17] | growth inhibition (GI) [19] | growth inhibition (GI) [27] | growth inhibition (GI) [28] | growth inhibition (GI) [29] | growth inhibition (GI) [32] | growth inhibition (GI) [35] | growth inhibition (GI) [36] | growth inhibition (GI) [37] | growth inhibition (GI) [41] | growth inhibition (GI) [43] | growth inhibition (GI) [44] | growth inhibition (GI) [45]
16%: inhibition of growth at 10 µM [34]
9%: inhibition of growth at 10 µM ([4]; SNB-75, 48 h, read-out: GI) | inhibition of growth at 10 µM [11] | inhibition of growth at 10 µM [33]
10%: inhibition of growth at 10 µM [21]

NS(=O)(=O)c1cnccc1N1CCC(Cc2ccccc2)CC1
2%: inhibition of growth at 10 µM ([5]; SNB-19, 48 h, read-out: GI) | inhibition of growth at 10 µM ([8]; KM12, 48 h, read-out: GI) | inhibition of growth at 10 µM [10] | inhibition of growth at 10 µM [30] | inhibition of growth at 10 µM ([36]; SK-OV-3, 48 h, read-out: GI)
1%: inhibition of growth at 10 µM [20] | inhibition of growth at 10 µM ([32]; read-out: GI) | inhibition of growth at 10 µM [38]
9%: inhibition of growth at 10 µM [23]
11%: inhibition of growth at 10 µM [22]
10%: inhibition of growth at 10 µM [11] | inhibition of growth at 10 µM [25]
13%: inhibition of growth at 10 µM [26]
12%: inhibition of growth at 10 µM [14] | inhibition of growth at 10 µM [18]
4%: inhibition of growth at 10 µM [1] | inhibition of growth at 10 µM [6] | inhibition of growth at 10 µM [42]
8%: inhibition of growth at 10 µM [46] | inhibition of growth at 10 µM [34]
18%: inhibition of growth at 10 µM [21]
inactive: growth inhibition (GI) [2] | growth inhibition (GI) [3] | growth inhibition (GI) [4] | growth inhibition (GI) [7] | growth inhibition (GI) [9] | growth inhibition (GI) [12] | growth inhibition (GI) [13] | growth inhibition (GI) [15] | growth inhibition (GI) [16] | growth inhibition (GI) [17] | growth inhibition (GI) [19] | growth inhibition (GI) [27] | growth inhibition (GI) [28] | growth inhibition (GI) [29] | growth inhibition (GI) [31] | growth inhibition (GI) [35] | growth inhibition (GI) [37] | growth inhibition (GI) [41] | growth inhibition (GI) [43] | growth inhibition (GI) [44] | growth inhibition (GI) [45]
3%: inhibition of growth at 10 µM [24] | inhibition of growth at 10 µM [33] | inhibition of growth at 10 µM [39] | inhibition of growth at 10 µM [40]

Source: ChEMBL document CHEMBL2434896, “Carbonic anhydrase inhibitors. Synthesis of heterocyclic 4-substituted pyridine-3-sulfonamide derivatives and their inhibition of the human cytosolic isozymes I and II and transmembrane tumor-associated isozymes IX and XII” (Eur J Med Chem, 2013)
